The record followed here is patent US11124494B2, “Aryl heterocyclic piperidinone formyl peptide 2 receptor and formyl peptide 1 receptor agonists” (Bristol-Myers Squibb Company, priority 2017, dated 2021).

Like-named read-outs stand apart in the source and are kept apart here.

One assay deals with human FPR2 receptors (Homo sapiens (Human), UniProt P25090). Put plainly: FPR2 cyclic adenosine monophosphate (cAMP) assay. In kind it is cell-based. As to conditions: CHO cells overexpressing human FPR2. The protocol:
(§1) FPR2 and FPR1 Cyclic Adenosine Monophosphate (cAMP) Assays. A mixture of forskolin (5 μM final for FPR2 or 10 μM final for FPR1) and IBMX (200 μM final) were added to 384-well Proxiplates (Perkin-Elmer) pre-dotted with test compounds in DMSO (1% final) at final concentrations in the range of 1.7 nM to 100 μM. Chinese Hamster Ovary cells (CHO) overexpressing human FPR1 or human FPR2 receptors were cultured in F-12 (Ham's) medium supplemented with 10% qualified FBS, 250 μg/ml zeocin and 300 μg/ml hygromycin (Life Technologies). Reactions were initiated by adding 2,000 human FPR2 cells per well or 4,000 human FPR1 cells per well in Dulbecco's PBS (with calcium and magnesium) (Life Technologies) supplemented with 0.1% BSA (Perkin-Elmer). The reaction mixtures were incubated for 30 min at room temperature. The level of intracellular cAMP was determined using the HTRF HiRange cAMP assay reagent kit (Cisbio) according to manufacturer's instruction. Solutions of cryptate conjugated anti-cAMP and d2 flurorophore-labelled cAMP were made in a supplied lysis buffer separately. Upon completion of the reaction, the cells were lysed with equal volume of the d2-cAMP solution and anti-cAMP solution. After a 1-h room temperature incubation, time-resolved fluorescence intensity was measured using the Envision (Perkin-Elmer) at 400 nm excitation and dual emission at 590 nm and 665 nm. A calibration curve was constructed with an external cAMP standard at concentrations ranging from 1 μM to 0.1 pM by plotting the fluorescent intensity ratio from 665 nm emission to the intensity from the 590 nm emission against cAMP concentrations. The potency and activity of a compound to inhibit cAMP production was then determined by fitting to a 4-parametric logistic equation from a plot of cAMP level versus compound concentrations.

The next assay concerns the target human FPR1 receptors (Homo sapiens (Human), UniProt P21462). Put plainly: FPR1 cyclic adenosine monophosphate (cAMP) assay. In kind it is cell-based. As to conditions: CHO cells overexpressing human FPR1; forskolin 10 μM, IBMX 200 μM; inhibition of cAMP production; read-out: hFPR1 cAMP EC50. The protocol:
as §1

The mark [1] stands for this setting: forskolin 5 μM, IBMX 200 μM, inhibition of cAMP production, read-out: hFPR2 cAMP2 EC50.
Where [2] appears, read: hFPR2 Assay, potency bins, read-out: hFPR2 agonist activity EC50 values.

Sequence of human FPR1 receptors (P21462 whole entry): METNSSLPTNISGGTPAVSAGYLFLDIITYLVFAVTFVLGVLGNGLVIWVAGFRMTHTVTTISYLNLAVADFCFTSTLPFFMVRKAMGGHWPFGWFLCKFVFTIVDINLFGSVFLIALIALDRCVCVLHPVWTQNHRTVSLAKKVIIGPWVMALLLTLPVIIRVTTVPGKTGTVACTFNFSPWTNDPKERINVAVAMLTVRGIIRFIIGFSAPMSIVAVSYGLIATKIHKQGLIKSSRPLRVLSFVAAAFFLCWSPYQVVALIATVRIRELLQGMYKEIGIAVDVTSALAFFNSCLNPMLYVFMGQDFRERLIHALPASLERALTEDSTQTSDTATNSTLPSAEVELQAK
Sequence of human FPR2 receptors (P25090 whole entry): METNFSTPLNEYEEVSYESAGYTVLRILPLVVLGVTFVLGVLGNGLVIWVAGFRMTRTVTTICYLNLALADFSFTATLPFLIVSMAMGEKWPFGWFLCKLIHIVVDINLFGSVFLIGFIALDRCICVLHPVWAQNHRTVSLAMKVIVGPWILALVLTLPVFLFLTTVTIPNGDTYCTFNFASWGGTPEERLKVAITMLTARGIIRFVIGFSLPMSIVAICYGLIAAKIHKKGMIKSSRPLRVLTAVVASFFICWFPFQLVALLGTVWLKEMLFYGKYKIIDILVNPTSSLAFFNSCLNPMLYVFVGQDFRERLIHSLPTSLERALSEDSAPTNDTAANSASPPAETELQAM

By EC50 is commonly meant the concentration giving half of the maximal effect. For `O=C(Nc1ccc(C(F)(F)F)nc1)N[C@H]1CCCN(c2ccc(C3(CN4CCCC4)CCC3)cc2)C1=O` [Example 57, (S)-1-(2-oxo-1-(4-(1-(pyrrolidin-1-ylmethyl)cyclobutyl)phenyl)piperidin-3-yl)-3-(6-(trifluoromethyl)pyridin-3-yl)urea], the EC50 on human FPR2 receptors (setting [1]) was 0.96 µM; on human FPR1 receptors, > 5000 µM.
On to `O=C(Nc1ccc(C(F)(F)F)nc1)N[C@H]1CCCN(c2ccc(C3(CN4CCOCC4)CCC3)cc2)C1=O` [Example 62, (S)-1-(1-(4-(1-(morpholinomethyl)cyclobutyl)phenyl)-2-oxopipendin-3-yl)-3-(6-(trifluoromethyl)pyridin-3-yl)urea], for which the values for the concentration giving a half-maximal response (EC50) on human FPR2 receptors (setting [1]) and on human FPR1 receptors were 1.2 µM and 1.1 µM, respectively.
For `O=C(Nc1ccc(C(F)(F)F)nc1)N[C@H]1CCCN(c2ccc(C3(CN4CCCC4)CCCC3)cc2)C1=O` [Example 58, (S)-1-(2-oxo-1-(4-(1-(pyrrolidin-1-ylmethyl)cyclopentyl)phenyl)piperidin-3-yl)-3-(6-(trifluoromethyl)pyridin-3-yl)urea] the same measures were 1 µM and 3.4 µM.
For `CS(=O)(=O)NCC1(c2ccc(N3CCC[C@@H](NC(=O)Nc4cnc(Cl)cn4)C3=O)cc2)CCC1` [Example 6] the same measures were 0.0007 µM and 0.1 µM.
For `CS(=O)(=O)NCC1(c2ccc(N3CCC[C@@H](NC(=O)Nc4ccc(C(F)(F)F)cc4)C3=O)cc2F)CC1` [Example 18] the same measures were 0.00017 µM and 0.002 µM.
In the case of `CS(=O)(=O)NCC1(c2ccc(N3CCC[C@@H](NC(=O)Nc4ccc(C(F)(F)F)cc4)C3=O)cc2)CC1` [Example 42], the EC50 at human FPR2 receptors (setting [1]) stood at 0.00021 µM; on human FPR1 receptors, 0.033 µM.
As for `CS(=O)(=O)NCC1(c2ccc(N3C[C@@H](O)C[C@@H](NC(=O)Nc4ncc(Cl)cc4F)C3=O)cc2)CC1` [Example 71], the figures for the EC50 at human FPR2 receptors (setting [1]) and at human FPR1 receptors were 0.017 µM and 2.1 µM, respectively.
For `CS(=O)(=O)NCC1(c2ccc(N3C[C@@H](O)C[C@H](NC(=O)Nc4ncc(C(F)(F)F)cc4F)C3=O)cc2)CC1` [Example 69, N-((1-(4-((3S,5S)-3-(3-(3-fluoro-5-(trifluoromethyl)pyridin-2-yl)ureido)-5-hydroxy-2-oxopiperidin-1-yl)phenyl)cyclopropyl)methyl)methanesulfonamide] the same measures were 0.019 µM and 0.66 µM.
For `CC(=O)NC(C)C1(c2ccc(N3CCC[C@@H](NC(=O)Nc4ccc(C(F)(F)F)nc4)C3=O)cc2)CC1` (stereo partly drawn) [Example 73] the same measures were 83 µM and 330 µM.
For `O=C(Nc1ccc(C(F)(F)F)nc1)N[C@@H]1CCCN(c2ccc(C3(CN4CCOCC4)CCC3)cc2)C1=O` [Example 52, (R)-1-(1-(4-(1-(Morpholinomethyl)cyclobutyl)phenyl)-2-oxopiperidin-3-yl)-3-(6-(trifluoromethyl)pyridin-3-yl)urea] the same measures were 0.017 µM and 0.56 µM.
As for `O=C(Nc1ccc(Cl)cn1)N[C@@H]1CCCN(c2ccc(C3(CN4CCOCC4)CC3)cc2)C1=O` [Example 53, (R)-1-(5-chloropyridin-2-yl)-3-(1-(4-(1-(morpholinomethyl)cyclopropyl)phenyl)-2-oxopiperidin-3-yl)urea], the EC50 on human FPR2 receptors (setting [1]) was 0.017 µM; on human FPR1 receptors, 0.7 µM.
`CS(=O)(=O)NCC1(c2ccc(N3CCC[C@@H](NC(=O)Nc4ccc(C(F)(F)F)nc4)C3=O)cc2)CCC1` [Example 1, (R)—N-((1-(4-(2-Oxo-3-(3-(6-(trifluoromethyl)pyridin-3-yl)ureido)piperidin-1-yl)phenyl)cyclobutyl)methyl)methanesulfonamide]: the 50% effective concentration (EC50) at human FPR2 receptors (setting [2]) was ≤ 0.01 µM.
On to `CS(=O)(=O)NCC1(c2ccc(N3C[C@H](O)C[C@@H](NC(=O)Nc4ncc(Cl)cc4F)C3=O)cc2)CC1` [Example 70], for which the EC50 on human FPR2 receptors (setting [2]) was in the range of 0.01 to 0.1 µM.
On the same count and under the same terms, the figure for `COc1cnc(NC(=O)N[C@@H]2CCCN(c3ccc(C4(CNS(C)(=O)=O)CC4)c(F)c3)C2=O)cn1` [Example 5] is ≤ 0.01 µM; for `O=C(Nc1ncc(Cl)cc1F)N[C@@H]1CCCN(c2ccc(C3(CN4CCOCC4)CC3)cc2)C1=O` [Example 54, (R)-1-(5-chloro-3-fluoropyridin-2-yl)-3-(1-(4-(1-(morpholinomethyl)cyclopropyl)phenyl)-2-oxopiperidin-3-yl)urea] it is 0.1 to 1.25 µM; for `CS(=O)(=O)NCC1(c2ccc(N3CCC[C@@H](NC(=O)Nc4ncc(C(F)(F)F)cc4F)C3=O)cc2)CCC1` [Example 14] it is ≤ 0.01 µM.
The same measure, in the same setting: the figure for `COc1cnc(NC(=O)N[C@H]2CCCN(c3ccc(C4(CNS(C)(=O)=O)CCC4)cc3)C2=O)cn1` [Example 10] is 0.01 to 0.1 µM.
For `CS(=O)(=O)NCC1(c2ccc(N3CCC[C@@H](NC(=O)Nc4cnc(Cl)cn4)C3=O)cc2)CC1` [Example 27], the values for the half-maximal effective concentration (EC50) at human FPR2 receptors (setting [1]) and at human FPR1 receptors were 0.00091 µM and 0.13 µM, respectively.
For the compound `CS(=O)(=O)NCC1(c2ccc(N3CCC[C@@H](NC(=O)Nc4ncc(Cl)cc4F)C3=O)cc2F)CC1` [Example 20], the EC50 on human FPR2 receptors (setting [2]) was ≤ 0.01 µM.
For the compound `CS(=O)(=O)NCC1(c2ccc(N3CCC[C@H](NC(=O)Nc4ncc(Cl)cc4F)C3=O)cc2)CC1` [Example 41], the 50% effective concentration (EC50) amounted to 0.98 µM at human FPR2 receptors (setting [1]) and 7.6 µM at human FPR1 receptors.
In the case of `CS(=O)(=O)NCC1(c2ccc(N3CCC[C@@H](NC(=O)Nc4ccc(C(F)(F)F)cn4)C3=O)cc2)CCC1` [Example 28], the EC50 at human FPR2 receptors (setting [2]) is ≤ 0.01 µM.
The same measure, in the same setting: with `COc1ccc(NC(=O)N[C@@H]2CCCN(c3ccc(C4(CNS(C)(=O)=O)CC4)cc3)C2=O)nc1` [Example 24] the figure was ≤ 0.01 µM.
As for `O=C(Nc1ccc(Cl)cc1F)N[C@@H]1CCCN(c2ccc(C3CCC(O)C3)cc2)C1=O` (stereo partly drawn) [Example 77, 1-(4-Chloro-2-fluorophenyl)-3-((3R)-1-(4-(3-hydroxycyclopentyl)phenyl)-2-oxopiperidin-3-yl)urea], the EC50 at human FPR2 receptors (setting [1]) was 3.2 µM; on human FPR1 receptors, 3.6 µM.
On to `CS(=O)(=O)NCC1(c2ccc(N3CCC[C@H](NC(=O)Nc4ccc(C(F)(F)F)nc4)C3=O)cc2)CCC1` [Example 30], for which the concentration for a half-maximal effect (EC50) at human FPR2 receptors (setting [2]) lay within 0.1 to 1.25 µM.
Same read-out and setting: the figure for `CS(=O)(=O)NCC1(c2ccc(N3CCC[C@@H](NC(=O)Nc4ccc(C(F)(F)F)nc4)C3=O)cc2)CCCC1` [Example 31] is ≤ 0.01 µM.
